According to patent US10597388B2, “Pyridazinone herbicides” (FMC CORPORATION, priority 2014, dated 2020):

Columns and labels:
Experiment in all cases: Test D controlled growth environment herbicide test, pre- and postemergence
Format in all cases: in vivo
[1] = system: ryegrass, Italian (Italian ryegrass, Lolium multiflorum)
How it was run: (§1)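 Pre-emergence: seeds sown in silt loam soil were sprayed with compound in a non-phytotoxic solvent mix containing surfactant. Post-emergence: plants at 2 to 18 cm (1- to 4-leaf stage) in peat moss/vermiculite medium got the same formulation. Visual 0–100 rating versus controls after 14 to 21 d.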

[2] = system: oilseed rape (Brassica napus)
How it was run: as §1

[3] = system: field violet (Viola arvensis)
How it was run: as §1

[4] = system: wheat, winter (winter wheat, Triticum aestivum)
How it was run: as §1

[5] = system: galium (catchweed bedstraw, Galium aparine)
How it was run: as §1

[6] = system: lambsquarters (Chenopodium album)
How it was run: as §1

[7] = system: deadnettle (henbit deadnettle, Lamium amplexicaule)
How it was run: as §1

[8] = system: foxtail, green (green foxtail, Setaria viridis)
How it was run: as §1

[9] = system: windgrass (Apera spica-venti)
How it was run: as §1

[10] = system: canarygrass (Phalaris minor)
How it was run: as §1

[11] = system: buckwheat, wild (wild buckwheat, Polygonum convolvulus)
How it was run: as §1

[12] = system: chickweed (common chickweed, Stellaria media)
How it was run: as §1

[13] = system: chamomile (scentless chamomile, Matricaria inodora)
How it was run: as §1

[14] = system: bromegrass, downy (downy bromegrass, Bromus tectorum)
How it was run: as §1

[15] = Postemergence, 31 g ai/ha, scale 0 to 100 (0 no effect, 100 complete control)
[16] = Postemergence, 125 g ai/ha, visual rating on scale 0 (no effect) to 100 (complete control), 14 to 21 d
[17] = Postemergence, 250 g ai/ha, scale 0 to 100 (0 no effect, 100 complete control)
[18] = postemergence, 62 g ai/ha, scale 0 to 100, 0 no effect, 100 complete control

Cc1cc(C)c2ccccc2c1-c1c(O)c(C)nn(C)c1=O [Compound 21]
35: Plant response rating, Wheat, Winter [4, 16]
95: Field Violet plant response rating [3, 15] | Plant response rating, Field Violet [3, 18] | Plant response rating, Lambsquarters [6, 17] | Plant response rating, Deadnettle [7, 16] | Plant response rating, Foxtail, Green [8, 17] | Plant response rating, Canarygrass [10, 17] | Plant response rating, Chamomile [13, 18]
45: Bromegrass, Downy plant response rating [14, 15]
100: Plant response rating, Oilseed Rape [2, 16] | Plant response rating, Oilseed Rape [2, 17] | Plant response rating, Oilseed Rape [2, 18] | Plant response rating, Field Violet [3, 16] | Plant response rating, Field Violet [3, 17] | Galium plant response rating [5, 15] | Plant response rating, Galium [5, 16] | Plant response rating, Galium [5, 17] | Plant response rating, Galium [5, 18] | Plant response rating, Deadnettle [7, 17] | Plant response rating, Deadnettle [7, 18] | Buckwheat, Wild plant response rating [11, 15] | Plant response rating, Buckwheat, Wild [11, 16] | Plant response rating, Buckwheat, Wild [11, 17] | Plant response rating, Buckwheat, Wild [11, 18] | Plant response rating, Chickweed [12, 16] | Plant response rating, Chickweed [12, 17] | Plant response rating, Chickweed [12, 18] | Plant response rating, Chamomile [13, 16] | Plant response rating, Chamomile [13, 17]
90: Plant response rating, Lambsquarters [6, 16] | Deadnettle plant response rating [7, 15] | Chickweed plant response rating [12, 15] | Chamomile plant response rating [13, 15]
70: Foxtail, Green plant response rating [8, 15] | Windgrass plant response rating [9, 15]
25: Plant response rating, Wheat, Winter [4, 18]
85: Plant response rating, Ryegrass, Italian [1, 16] | Plant response rating, Lambsquarters [6, 18] | Plant response rating, Foxtail, Green [8, 16] | Plant response rating, Windgrass [9, 16] | Plant response rating, Windgrass [9, 17] | Plant response rating, Canarygrass [10, 16]
40: Plant response rating, Wheat, Winter [4, 17]
60: Plant response rating, Bromegrass, Downy [14, 18]
75: Plant response rating, Bromegrass, Downy [14, 16]
80: Ryegrass, Italian plant response rating [1, 15] | Plant response rating, Ryegrass, Italian [1, 17] | Plant response rating, Ryegrass, Italian [1, 18] | Oilseed Rape plant response rating [2, 15] | Lambsquarters plant response rating [6, 15] | Plant response rating, Foxtail, Green [8, 18] | Plant response rating, Windgrass [9, 18] | Canarygrass plant response rating [10, 15] | Plant response rating, Canarygrass [10, 18] | Plant response rating, Bromegrass, Downy [14, 17]
20: Wheat, Winter plant response rating [4, 15]
